Results as given in patent US20140128352A1, “COMPOUNDS AND METHODS FOR MODULATING MITOCHONDRIAL METABOLISM AND REACTIVE OXYGEN SPECIES PRODUCTION” (Buck Institute for Research on Aging, priority 2012, published 2014).
Entries after “also recorded” stand apart in the source; their conditions may differ. Read-outs that look alike come from different tables or passages of the source.

How the values were obtained:
[1] = test system: ubiquinone binding site of complex I (IQ); experiment: High-throughput screen: ROS production from ubiquinone binding site of complex I (IQ), isolated skeletal muscle mitochondria; format: biochemical, rat; settings: percent change in ROS from DMSO controls
Method: (§1) Skeletal muscle mitochondria were isolated from 5-8 week old female Wistar rats (Harlan Laboratories). Minced muscle was homogenized in buffer containing bacterial protease Type VIII prior to differential centrifugation to separate mitochondria from other tissue components. Unless otherwise stated, freshly isolated muscle mitochondria were assayed in buffer containing 120 mM KCl, 5 mM HEPES, 1 mM EGTA, 0.3% (w/v) bovine serum albumin. Where indicated, CaCl2 was added to yield a final free concentration of 250 nM calcium at pH 7.0 at 37° C.
(§2) Compounds (10 mM in DMSO) were randomly selected from a library of 24,000 compounds obtained from ChemBridge and curated by the lab of Robert Hughes at the Buck Institute. Master screening plates were prepared using a Biomek FX liquid handling workstation (Beckman) to transfer 1 μL of each compound into individual wells on 96-well storage plates (80 compounds per plate). Master plates were sealed with foil and stored at −80° C. Just prior to use, plates were brought to room temperature and diluted 300-fold with standard buffer (13.3X=33.3 μM). To monitor the performance of each assay throughout screening and to provide intra-plate normalization reference points, DMSO negative controls and known mitochondrial inhibitor positive controls were included on each Master compound plate.
(§3) Total amounts of superoxide and H2O2 production were determined fluorometrically as H2O2, without distinguishing between them, in the presence of exogenous superoxide dismutase (25 units/mL final), horseradish peroxidase (1 unit/mL final), and Amplex UltraRed (25 μM final) as described (Affourtit, C. et al. (2012) Measurement of proton leak and electron leak in isolated mitochondria. Methods Mol. Biol. 810: 165-82). Just prior to use, a bulk 3.3X solution was made in standard buffer and distributed into a 2 mL deep well 96-well transfer plate.
To assess the effects of a compound on ROS production from the ubiquinone binding site of complex I (IQ), Start Solution containing 5 mM succinate was distributed into standard 96-well transfer plates. A Biomek FX workstation was programmed to dispense solutions into black 96-well assay plates. Solutions were dispensed to all assay plates in the following order: ROS Detection solution described in Example 3, Mitochondria solution described in Example 1 to a final concentration of 0.1 mg/ml, and Compound dilutions described in Example 2. Duplicate assay plates were made and each was initiated by the addition of 3.3X Start solution containing 5 mM succinate. Plates were incubated in the dark at room temperature for 30-40 minutes before acquiring endpoint fluorescence using a Victor 3V plate reader (Perkin Elmer) equipped with 550/590 nm excitation/emission filters.
The fluorescence values in each well were scaled as the percent change from the intra-plate DMSO controls with the appropriate inhibitor positive controls defined as −100%. Following initial scaling, intra-plate normalized values were subjected to Tukey's two-way median polish to remove row and column dependent positional effects (Malo et al, 2006).

[2] = biological target: T1, succinate dehydrogenase/complex II (SDH) (Rattus norvegicus, UniProt P21913+Q641Z9+Q6PCT8+Q920L2); experiment: High-throughput screen: ROS production from succinate dehydrogenase/complex II (SDH); format: biochemical; settings: percent change in ROS from DMSO controls; for inhibition at 2.5 µM: Table 7
T1 construct: freshly isolated muscle mitochondria were assayed; from tissue; host or cells: rat skeletal muscle mitochondria (Wistar, Harlan Laboratories)

[3] = test system: mitochondrial membrane potential (ΔΨm); experiment: Membrane potential (ΔΨm) counterscreen with TMRM; settings: malate, nigericin
Method: Skeletal muscle mitochondria were isolated from 5-8 week old female Wistar rats (Harlan Laboratories). Minced muscle was homogenized in buffer containing bacterial protease Type VIII prior to differential centrifugation to separate mitochondria from other tissue components. Unless otherwise stated, freshly isolated muscle mitochondria were assayed in buffer containing 120 mM KCl, 5 mM HEPES, 1 mM EGTA, 0.3% (w/v) bovine serum albumin. Where indicated, CaCl2 was added to yield a final free concentration of 250 nM calcium at pH 7.0 at 37° C. Total and free calcium concentrations were calculated using the Extended MaxChelator program at http://maxchelator.stanford.edu.
Compounds were manually transferred from the Master Compound Plate to two black 96-well assay plates. A bulk solution was prepared containing the following components (final concentrations) and manually dispensed into the two ΔΨm assay plates: the potentiometric dye TMRM (5 μM), mitochondria (0.2 mg/mL), glutamate (5 mM), malate (5 mM), and nigericin (80 ng/mL).

[4] = biological target: T2, flavin binding site of complex I (IF) (Rattus norvegicus, UniProt Q5XIH3); experiment: High-throughput screen: ROS production from flavin binding site of complex I (IF); format: biochemical
T2 construct: freshly isolated muscle mitochondria were assayed; from tissue; host or cells: rat skeletal muscle mitochondria (Wistar, Harlan Laboratories)

[5] = biological target: T3, outer ubiquinone binding site of complex III (IIIQO) (Rattus norvegicus, UniProt P00159+P20788); experiment: High-throughput screen: ROS production from outer ubiquinone binding site of complex III (IIIQO); format: biochemical; settings: for IIIQO: Table 8
T3 construct: freshly isolated muscle mitochondria were assayed; from tissue; host or cells: rat skeletal muscle mitochondria (Wistar, Harlan Laboratories)
Method: as §1, §2, §3
To assess the effects of a compound on ROS production from the outer ubiquinone binding site of complex III (IIIQO), Start Solution containing 5 mM succinate, 4 μM rotenone and 2.5 μM antimycin A was distributed into standard 96-well transfer plates. A Biomek FX workstation was programmed to dispense solutions into black 96-well assay plates. Solutions were dispensed to all assay plates in the following order: ROS Detection solution described in Example 3, Mitochondria solution described in Example 1 to a final concentration of 0.1 mg/ml, and Compound dilutions described in Example 2. Duplicate assay plates were made and each was initiated by the addition of 3.3X Start solution containing 5 mM succinate, 4 μM rotenone and 2.5 μM antimycin A. Plates were incubated in the dark at room temperature for 30-40 minutes before acquiring endpoint fluorescence using a Victor 3V plate reader (Perkin Elmer) equipped with 550/590 nm excitation/emission filters.
The fluorescence values in each well were scaled as the percent change from the intra-plate DMSO controls with the appropriate inhibitor positive controls defined as −100%. Following initial scaling, intra-plate normalized values were subjected to Tukey's two-way median polish to remove row and column dependent positional effects (Malo et al., 2006).

[6] = biological target: T4, glycerol-3-phosphate dehydrogenase (GPDH) (Rattus norvegicus, UniProt P35571); experiment: High-throughput screen: ROS production from glycerol-3-phosphate dehydrogenase (GPDH); format: biochemical; parameters: inhibition: dose or concentration left out as unconfirmed
T4 construct: The activity of GPDH in intact mitochondria (0.3 mg/mL) was measured; from tissue; host or cells: rat skeletal muscle mitochondria (Wistar, Harlan Laboratories)
T4 sequence (P35571 43-727): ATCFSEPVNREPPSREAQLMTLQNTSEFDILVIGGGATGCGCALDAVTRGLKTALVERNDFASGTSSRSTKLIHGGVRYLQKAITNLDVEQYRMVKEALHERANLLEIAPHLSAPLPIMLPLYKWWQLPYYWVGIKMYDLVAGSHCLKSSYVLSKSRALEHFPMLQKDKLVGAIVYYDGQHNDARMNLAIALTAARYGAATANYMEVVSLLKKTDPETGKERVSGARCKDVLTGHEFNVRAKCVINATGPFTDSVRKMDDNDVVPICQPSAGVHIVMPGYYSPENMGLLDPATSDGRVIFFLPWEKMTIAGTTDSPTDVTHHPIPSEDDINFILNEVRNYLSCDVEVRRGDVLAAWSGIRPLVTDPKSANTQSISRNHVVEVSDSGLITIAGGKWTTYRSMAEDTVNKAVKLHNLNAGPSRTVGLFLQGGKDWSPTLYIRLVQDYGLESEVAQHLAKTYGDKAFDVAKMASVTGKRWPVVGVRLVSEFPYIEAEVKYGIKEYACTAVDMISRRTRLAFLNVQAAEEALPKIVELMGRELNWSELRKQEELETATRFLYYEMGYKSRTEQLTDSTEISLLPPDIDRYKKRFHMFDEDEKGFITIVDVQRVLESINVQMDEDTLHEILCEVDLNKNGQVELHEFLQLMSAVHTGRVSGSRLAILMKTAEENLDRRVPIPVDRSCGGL
Method: as §1, §2, §3
To assess the effects of a compound on ROS production from glycerol-3-phosphate dehydrogenase (GPDH), Start Solution containing 25 mM glycerol phosphate, 4 μM rotenone, 2.5 μM antimycin A, 1 mM malonate, 2 μM myxothiazol was distributed into standard 96-well transfer plates. A Biomek FX workstation was programmed to dispense solutions into black 96-well assay plates. Solutions were dispensed to all assay plates in the following order: ROS Detection solution described in Example 3, Mitochondria solution described in Example 1 to a final concentration of 0.2 mg/ml, and Compound dilutions described in Example 2. Duplicate assay plates were made and each was initiated by the addition of 3.3X Start solution containing 25 mM glycerol phosphate, 4 μM rotenone, 2.5 μM antimycin A, 1 mM malonate, 2 μM myxothiazol. Plates were incubated in the dark at room temperature for 30-40 minutes before acquiring endpoint fluorescence using a Victor 3V plate reader (Perkin Elmer) equipped with 550/590 nm excitation/emission filters.
The fluorescence values in each well were scaled as the percent change from the intra-plate DMSO controls. […] Following initial scaling, intra-plate normalized values were subjected to Tukey's two-way median polish to remove row and column dependent positional effects (Malo et al., 2006).

site IF = biological target: T5, site IF (Rattus norvegicus, UniProt Q5XIH3); experiment: Retest of IF ROS production (expanded microplate panel); format: biochemical
T5 construct: freshly isolated muscle mitochondria were assayed; from tissue; host or cells: rat skeletal muscle mitochondria (Wistar, Harlan Laboratories)
Method: Compounds identified as site-selective hits as well as structural analogs were re-sourced from ChemBridge and dissolved in DMSO as 80 mM stocks. Master Titration Plates were prepared manually by serially diluting 80 mM compound stocks between 0.08 and 80 mM on 96-well microplates. Four compounds were titrated in duplicate on each plate. Additional DMSO controls were interspersed across these plates to serve as local normalization controls during analysis since two-way median polishing was not appropriate. Just prior to use, compounds were diluted 100-fold with standard buffer (10X). The same known inhibitor positive controls were included on each plate as during high-throughput screening. The five core ROS assays and single ΔΨm assay were carried out as in the initial high-throughput screen. In addition, several assays were included to help validate the specificity of the compounds for a given site of production. […] The use of different substrates was designed to reveal compounds that disrupt mitochondrial function in a substrate specific manner. […] Most frequently, these changes involved the use of different substrates to supply electrons from an alternative entry point in the chain. If a site of ROS production is being targeted selectively by a compound, then in many cases the supply of electrons should not influence the effectiveness of this compound at suppressing ROS production. […] The fluorescence values in each well were scaled in relation to the intra-plate DMSO and known inhibitor controls as in the high-throughput screen except that median values for local interspersed DMSO wells (3-6 wells) were used rather than just the 8 DMSO wells in columns 1 and 12. This normalization was applied in place of the two-way median polish used during high-throughput screening to minimize row and column effects. […] At this stage, strong candidates were not necessarily excluded from further testing if subtle off-target effects were observed (e.g. loss of specificity or signs of general inhibition at the highest concentrations). Rather, these candidates were often pursued for more detailed mechanistic studies with the expectation that subsequent structure activity analysis would provide insight into which structurally related compounds would provide the optimal specificity for a given site of production.

GPDH = biological target: T6, GPDH (Rattus norvegicus, UniProt P35571); experiment: Retest of GPDH ROS production (expanded microplate panel / cuvette); format: biochemical; settings: microplate or cuvette
T6 construct: from tissue; host or cells: rat skeletal muscle mitochondria (Wistar, Harlan Laboratories)
T6 sequence (P35571 43-727): T4 sequence (P35571 43-727)
Method: Compounds identified as site-selective hits as well as structural analogs were re-sourced from ChemBridge and dissolved in DMSO as 80 mM stocks. Master Titration Plates were prepared manually by serially diluting 80 mM compound stocks between 0.08 and 80 mM on 96-well microplates. Four compounds were titrated in duplicate on each plate. Additional DMSO controls were interspersed across these plates to serve as local normalization controls during analysis since two-way median polishing was not appropriate. Just prior to use, compounds were diluted 100-fold with standard buffer (10X). The same known inhibitor positive controls were included on each plate as during high-throughput screening.
The five core ROS assays and single ΔΨm assay were carried out as in the initial high-throughput screen. In addition, several assays were included to help validate the specificity of the compounds for a given site of production. All compounds were titrated against separate assays targeting IQ ROS and IIIQo ROS using subsaturating (0.5 mM final) succinate. […] Specifically, ΔΨm was monitored separately with 5 mM succinate (in the presence of 4 μM rotenone) in addition to glutamate and malate as before. The use of different substrates was designed to reveal compounds that disrupt mitochondrial function in a substrate specific manner.
Most frequently, these changes involved the use of different substrates to supply electrons from an alternative entry point in the chain. If a site of ROS production is being targeted selectively by a compound, then in many cases the supply of electrons should not influence the effectiveness of this compound at suppressing ROS production. […]
The fluorescence values in each well were scaled in relation to the intra-plate DMSO and known inhibitor controls as in the high-throughput screen except that median values for local interspersed DMSO wells (3-6 wells) were used rather than just the 8 DMSO wells in columns 1 and 12. […]

complex I = experiment: Rate of NAD(P)H reduction via complex I versus observed ROS production; format: biochemical, rat
Method: To compare candidate IQ ROS inhibitors with mitochondrial inhibitors known to disrupt complex I activity (e.g. rotenone) or oxidize the electron transport chain (e.g. the uncoupler FCCP), the rate of NAD(P)H reduction via complex I was measured when isolated mitochondria were provided with saturating concentrations of the complex II substrate succinate (5 mM) and subsaturating levels of glutamate (1 mM) to facilitate full activation of complex II by oxaloacetate removal. […] These conditions allow electron and proton fluxes through complex Ito reverse and be directed predominantly toward the matrix. Addition of succinate causes a rapid increase in the reduction state of the matrix NAD(P)H pool that can be monitored as described above. The rate of NAD(P)H reduction is therefore a measure of electron flux through complex I for which direct comparisons can be made under identical conditions to effects on rates of ROS production.

[7] = Table 3, 5 mM glutamate, 5 mM malate, 4 μM rotenone, compounds 2.5 μM, percent change from DMSO, positive control −100%, read-out: % Reduction in ROS production (IF)
[8] = Table 7, percent change in ROS from DMSO controls, read-out: IF
[9] = Table 8, percent change in ROS from DMSO controls
[10] = Table 9, percent change in ROS from DMSO controls
[11] = Table 7, percent change in ROS from DMSO controls, read-out: IIIQO
[12] = percent change in ROS from DMSO controls
[13] = Table 9, percent change in ROS from DMSO controls, read-out: IIIQo
[14] = Table 7, percent change in ROS from DMSO controls

T1 sequence (Q920L2 35-656): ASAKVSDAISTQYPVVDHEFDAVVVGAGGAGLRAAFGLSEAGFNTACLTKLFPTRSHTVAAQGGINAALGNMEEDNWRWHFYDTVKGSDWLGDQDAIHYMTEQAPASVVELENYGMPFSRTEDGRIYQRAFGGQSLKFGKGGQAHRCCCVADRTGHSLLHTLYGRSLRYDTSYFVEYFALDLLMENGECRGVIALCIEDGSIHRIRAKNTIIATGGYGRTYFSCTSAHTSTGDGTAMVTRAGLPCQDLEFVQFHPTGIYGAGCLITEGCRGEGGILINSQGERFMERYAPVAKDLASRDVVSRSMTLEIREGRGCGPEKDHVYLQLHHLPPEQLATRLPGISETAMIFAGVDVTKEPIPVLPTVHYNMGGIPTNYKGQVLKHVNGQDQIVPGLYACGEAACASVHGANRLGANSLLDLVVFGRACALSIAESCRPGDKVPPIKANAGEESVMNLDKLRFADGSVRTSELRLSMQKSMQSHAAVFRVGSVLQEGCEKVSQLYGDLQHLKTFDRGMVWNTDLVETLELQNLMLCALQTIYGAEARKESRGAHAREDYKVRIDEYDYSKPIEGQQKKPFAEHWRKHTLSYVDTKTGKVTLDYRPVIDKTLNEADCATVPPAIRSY
T1 sequence (P21913 31-282): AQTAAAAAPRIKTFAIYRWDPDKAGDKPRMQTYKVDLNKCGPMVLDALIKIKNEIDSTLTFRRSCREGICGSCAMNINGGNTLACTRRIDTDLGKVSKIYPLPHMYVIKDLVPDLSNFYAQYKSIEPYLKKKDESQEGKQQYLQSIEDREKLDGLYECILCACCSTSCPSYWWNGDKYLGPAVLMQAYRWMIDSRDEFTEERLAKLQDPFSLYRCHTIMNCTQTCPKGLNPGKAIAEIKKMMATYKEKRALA
T1 sequence (Q641Z9 30-169 limits assumed): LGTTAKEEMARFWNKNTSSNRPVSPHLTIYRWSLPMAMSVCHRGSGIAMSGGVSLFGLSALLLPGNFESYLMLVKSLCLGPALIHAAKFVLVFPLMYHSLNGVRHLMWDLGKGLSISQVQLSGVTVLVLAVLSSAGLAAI
T1 sequence (Q6PCT8 57-159): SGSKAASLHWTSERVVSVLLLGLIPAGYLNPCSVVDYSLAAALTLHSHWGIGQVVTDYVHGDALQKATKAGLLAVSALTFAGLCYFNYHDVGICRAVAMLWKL
T2 sequence (Q5XIH3 21-464 limits assumed, one chain of several): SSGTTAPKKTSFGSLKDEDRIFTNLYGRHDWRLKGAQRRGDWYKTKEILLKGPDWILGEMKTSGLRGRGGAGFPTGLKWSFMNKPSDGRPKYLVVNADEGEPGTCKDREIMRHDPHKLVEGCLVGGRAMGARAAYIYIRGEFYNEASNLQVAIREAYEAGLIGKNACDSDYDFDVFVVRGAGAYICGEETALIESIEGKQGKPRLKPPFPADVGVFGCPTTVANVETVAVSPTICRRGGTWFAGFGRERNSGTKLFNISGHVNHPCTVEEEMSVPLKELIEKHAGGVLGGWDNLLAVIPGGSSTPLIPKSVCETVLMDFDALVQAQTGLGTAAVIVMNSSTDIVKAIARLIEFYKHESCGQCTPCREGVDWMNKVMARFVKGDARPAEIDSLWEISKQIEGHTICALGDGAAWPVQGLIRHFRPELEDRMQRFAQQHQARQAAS
T5 sequence (Q5XIH3 21-464 limits assumed): as the sequence (Q5XIH3 21-464 limits assumed, one chain of several) above

SMILES | IQ ([1]; Table 7) | IQ ([1]; Table 8) | IQ ([1]; Table 9) | inhibition at 2.5 µM [2] [%] | SDH ([2]; Table 8) | SDH ([2]; Table 9) | ΔΨm ([3]; Table 8, glutamate) | ΔΨm ([3]; Table 9, glutamate) | inhibition at 2.5 µM [4, 7] [%] | inhibition at 2.5 µM [4, 8] [%] | IF [4, 9] | IF [4, 10] | inhibition at 2.5 µM [5, 11] [%] | IIIQO [5, 12] | inhibition at 2.5 µM [5, 13] [%] | inhibition [6, 14] [%] | GPDH [6, 9] | GPDH [6, 10] | effect on GPDH ROS on retesting (GPDH) | other results
O=C(O)C1CCCCC1C(=O)NC1CCCCCCC1 (stereo not shown) [Compound 30] | −0.7 | −0.7 | −0.7 | -3.3 | 3.3 | 3.3 | −1.0 | −1.0 | 36.9 | 36.9 | −36.9 | −36.9 | -0.1 | 0.1 | -0.1 | -0.7 | 0.7 | 0.7 |  | inhibition at 2.5 µM (site IF; 2.5 μM): 37%
CN(C)CCCN(CCCN(C)C)Cc1cccnc1 [Compound 33] | −0.5 | −0.5 | −0.5 |  |  |  | 0.4 | 0.4 | 3 | 3 | −3.0 | −3.0 | -6.1 | 6.1 | -6.1 | 12.7 | −12.7 | −12.7 |  | effect on IF ROS and selectivity for site IF (site IF): further improved selectivity for IF without compromising ΔΨm
O=C(O)CCC(=O)Nc1ccc(-c2nc3ccccc3o2)cc1 [Compound 50] | 0.8 | 0.8 | 0.8 | -2.1 | 2.1 | 2.1 | 0.8 | 0.8 |  | 2.6 | −2.6 | −2.6 | -2.5 | 2.5 | -2.5 | 12.2 | −12.2 | −12.2 | retested well as selective inhibitors of GPDH ROS | inhibition at 2.5 µM ([6]; Table 6, 25 mM glycerol phosphate, rotenone, antimycin A, malonate, myxothiazol, compounds 2.5 μM, scaled to IQ positive controls, read-out: % Reduction in ROS Production (GPDH)): 12.2%
COc1ccc(/C=C2\C(=O)NC(=S)N(c3ccccc3)C2=O)cc1Br [Compound 52] | −0.2 |  |  | -4.6 |  |  |  |  |  | 2.2 |  |  |  |  |  |  |  |  | did not show any effect on GPDH when retested | inhibition at 2.5 µM ([5]; read-out: IIIQO): 0.4%; inhibition at 2.5 µM ([6]; Table 7, percent change in ROS from DMSO controls, read-out: GPDH): 0%; inhibition at 2.5 µM ([6]; read-out: % Reduction in ROS Production (GPDH)): 14.6%
N#CC(C#N)=NNc1ccc(OC(F)(F)F)cc1 [FCCP] |  |  |  |  |  |  |  |  |  |  |  |  |  |  |  |  |  |  |  | effect on rates of NADH reduction and ROS production (complex I): progressively inhibited both activities; also recorded: suppresses observed ROS to near zero
C=C(C)[C@H]1Cc2c(ccc3c2O[C@@H]2COc4cc(OC)c(OC)cc4[C@@H]2C3=O)O1 [rotenone] |  |  |  |  |  |  |  |  |  |  |  |  |  |  |  |  |  |  |  | effect on rates of NADH reduction and ROS production (complex I; succinate with low glutamate, range of concentrations): progressively inhibited both activities; effect on rates of NADH reduction and ROS production (complex I; succinate with low glutamate, range of concentrations, listed as Rotenone): eliminates all IQ ROS production but not that from underlying IF and IIIQo
